Experimental data: patent US20250248979A1, “NOVEL GPX4 INHIBITORS AND USES THEREOF” (THE TRUSTEES OF COLUMBIA UNIVERSITY IN THE CITY OF NEW YORK, priority 2022, published 2025)
pEC50, pIC50, pKd: −log10 of the molar value. Where two headings read alike, the source gives them in different places. One block for each compound: values may come before it.

Legend:
SK-HEP-1 cells = assay: Cellular dose response assay, SK-HEP-1; assay type: cell-based, human
Excerpt: (§1) HT-1080 (human [Homo sapiens] […] fibrosarcoma), A-673 (human [Homo sapiens] […] Ewing's sarcoma), and SK-HEP-1 (human [Homo sapiens] […] hepatic adenocarcinoma), cells were obtained from ATCC. Huh7 (human [Homo sapiens] […] hepatocellular carcinoma), HLF (human [Homo sapiens] […] hepatocellular carcinoma), HepG2 (human [Homo sapiens] […] hepatocellular carcinoma), cells were obtained from the Cancer Cell Bank at Columbia University Irving Medical Center. HT-1080, A-673, Huh-7, and HLF cells were grown in Dulbecco's Modified Eagle Medium (DMEM) supplemented with 10% heat inactivated fetal bovine serum (HI-FBS), 1% non-essential amino acids, and 1% penicillin streptomycin. HepG2 and SK-HEP-1 cells were grown in Eagle's Minimum Essential Medium (EMEM) supplemented with 10% HI-FBS, and 1% penicillin-streptomycin. All cells were cultured at 37° C. and 5% CO2.
(§2) HT-1080, HepG2, Huh7, HLF, and SK-HEP-1 cells were seeded into opaque white 384-well plates at 1500 cells per well then incubated at 37° C. with 5% CO2 overnight. The next day, compounds of interest were dissolved in DMSO and 12-point 2-fold dilution series were prepared with and without Fer-1. Cells were treated in triplicate (final DMSO concentration of 0.4% in all wells, including DMSO-only control wells) and incubated for a further 48 hours at 37° C. and 5% CO2. Cell viability was evaluated using CellTiter-Glo (Promega G7573) and luminescence was recorded on a Victor 5 plate reader. Data were analyzed in GraphPad Prism 9 and error bars represent standard deviation values for three technical replicates in a representative experiment.

HLF cells = assay: Cellular dose response assay, HLF; assay type: cell-based, human
Excerpt: as §1, §2

GPX4^U46C = molecular target: T1, GPX4^U46C (Homo sapiens, UniProt P36969, U73C); assay: Microscale thermophoresis (MST) binding
T1 construct: made in house; host or cells: E. coli BL21-Gold (DE3)
T1 sequence (P36969 1-170 isoform P36969-2 U46C): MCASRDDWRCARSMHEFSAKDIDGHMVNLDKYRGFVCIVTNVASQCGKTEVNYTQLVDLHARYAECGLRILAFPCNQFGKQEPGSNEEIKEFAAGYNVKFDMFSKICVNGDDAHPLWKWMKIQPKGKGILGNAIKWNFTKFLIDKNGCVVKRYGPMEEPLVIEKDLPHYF
Method: The bacterial expression vector pET-15b-His-tagged-c-GPX4^U46C was prepared as previously described (Yang et al. 2016). The C-terminal His-tagged GPX4U46C protein was expressed in E. coli and purified according to a protocol modified from Scheerer et al. 2007. First, pET-15b-His-tagged-c-GPX4^U46C was transformed into XL10-Gold (Agilent #200314) E. coli ultracompetent cells for plasmid DNA production and isolated using QIAprep Spin Miniprep Kit (Qiagen). For protein expression, pET-15b-His-tagged-c-GPX4^U46C was then transformed into BL21-Gold (DE3) E. coli competent cells (Agilent #230132) and plated on LB agar with 100 μg/mL ampicillin. A starter culture was inoculated in 7 mL of LB medium with 100 μg/mL ampicillin using a single colony and allowed to grow in a 37° C. shaker (225 rpm) for 16 hours. 3 mL of the starter culture was added to 1 L of LB medium with 100 μg/mL ampicillin, which was then incubated in a 37° C. shaker (225 rpm) to an OD600 of 0.9. At that point, the incubation temperature was reduced to 15° C. and the culture was allowed to equilibrate for 1 hour. Expression of the recombinant enzyme was induced by addition of isopropyl β-D-1-thiogalactopyranoside (IPTG, 1 mM final concentration) overnight for 12-15 hours shaking at 225 rpm and 15° C. The next morning, cells were harvested by centrifugation at 4000 rpm and 4° C. for 20 minutes. The cell pellet was then frozen at −80° C. for at least 1 hour or until lysis. To lyse the cells, the cell pellet was resuspended with 25 mL of chilled lysis buffer (100 mM Tris pH 8.0, 300 mM NaCl, 20 mM imidazole, 3 mM TCEP, and 2.5 mini tablets of complete Protease Inhibitor Cocktail (Roche-Sigma #11836170001)) then lysed using an Emulsiflex C3 high-pressure homogenizer. To remove cell debris, the lysate was subjected to centrifugation at 10000 rpm and 4° C. for 20 minutes. The supernatant was centrifuged once more at the same conditions, then the clarified lysate was applied onto a 5-mL HisTrap HP column (Cytiva #17-5248-01), washed with 90% Buffer A (100 mM Tris pH 8.0, 300 mM NaCl, 5% glycerol, 3 mM TCEP) 10% Buffer B (Buffer A with 500 mM imidazole), then eluted with a continuous gradient (10-100% Buffer B). The protein was concentrated using Amicon Ultra-15 centrifugal filter units with a 10 kDa molecule weight cutoff (EMD Millipore #UFC901024) then further purified by FPLC on a size exclusion HiLoad Superdex 200 column (Cytiva) in crystallization buffer (20 mM Tris pH 8.0, 300 mM NaCl, 3 mM TCEP). The fractions containing 90-95% pure GPX4 protein, as evaluated by SDS-PAGE, were pooled and concentrated using the same Amicon centrifugal filter units as above to 5 mg/mL. Concentration was determined by Nanodrop. Protein was aliquoted into Eppendorf tubes, flash frozen using liquid nitrogen, and stored at −80° C. until use.
MST experiments were conducted using a Monolith NT.115 (Nanotemper Technologies) according to manufacturer instructions. To label the protein, 90 μL of 200 nM GPX4^U46C was combined with 90 μL of 100 nM RED-tris-NTA dye diluted in PBS buffer with 0.05% Tween 20 (PBST buffer). The mixture was incubated for 30 minutes at room temperature, followed by centrifugation for 10 minutes at 4° C. and 15,000×g. To assess binding of the compounds, a 16-point 2-fold dilution series in PBST buffer was prepared and mixed in a 1:1 ratio with the labeled protein solution for a final volume of 20 μL. The reaction mixture was loaded into standard treated capillary tubes and analyzed with the Monolith NT.115 at 40% LED power and 40% MST power with a laser-on time of 5 seconds. The data were analyzed in MO.Affinity Analysis v2.3 software.

HepG2 cells = assay: Cellular dose response assay, HepG2; assay type: cell-based, human
In short: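 Cells were seeded at 1500 per well, grown overnight, then treated in triplicate with 12-point 2-fold compound dilutions (0.4% DMSO final) for 48 h at 37 °C, 5% CO2. HT-1080 series were run with and without Fer-1. Viability was read by CellTiter-Glo luminescence.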

HT-1080 cells = assay: Cellular dose response assay, HT-1080 with and without Fer-1; assay type: cell-based, human
In short: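 Viability is measured with CellTiter-Glo after cells plated at 1500 per well the previous day receive a 12-point, 2-fold dilution series for 48 h. DMSO is kept at 0.4% in every well, and HT-1080 is tested both with and without Fer-1.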

[1] = compounds alone, Table 4, read-out: IC50 (uM) SKHEP1^a
[2] = with fer-1, Table 4, read-out: IC50 (uM) SKHEP1^b
[3] = compounds alone, Table 4, read-out: IC50 (uM) HLF^a
[4] = with fer-1, Table 4, read-out: IC50 (uM) HLF^b
[5] = compounds alone, Table 4, read-out: IC50 (uM) HEPG2^a
[6] = with fer-1, Table 4, read-out: IC50 (uM) HEPG2^b
[7] = compounds alone, Table 4, read-out: IC50 (uM) HT1080^a
[8] = with fer-1, Table 4, read-out: IC50 (uM) HT1080^b
[9] = with Fer-1, Table 10, read-out: IC50 (μM) HT1080 + Fer-1

IC50 (SK-HEP-1 cells; [1]): 13.7 µM | IC50 (SK-HEP-1 cells; [2]): 62.8 µM | IC50 (HLF cells; [3]): 13.4 µM | IC50 (HLF cells; [4]): 34.3 µM | pEC50 (GPX4^U46C; half maximal effective concentration, covalent mechanism): 6.66 | IC50 (HepG2 cells; [5]): 25.4 µM | IC50 (HepG2 cells; [6]): 51.5 µM | IC50 (HT-1080 cells; [7]): 22.9 µM | IC50 (HT-1080 cells; [8]): 33.1 µM
SMILES: CC(C)(COC(=O)CCl)NC(=O)c1cc2ccc(Br)cc2[nH]1 [QW-156]

SMILES: Cn1nc(C(=O)NC(C)(C)COC(=O)CCl)c2ccc(Br)cc21 [QW-314]
IC50 (SK-HEP-1 cells; Homo sapiens, SK-HEP1, read-out: IC50 (uM) SKHEP1^a): 10.8 µM | IC50 (SK-HEP-1 cells; Homo sapiens, SK-HEP1, read-out: IC50 (uM) SKHEP1^b): 106 µM | GI50 (HLF cells; Homo sapiens, HLF): ~1 µM | IC50 (HLF cells; Homo sapiens, HLF, read-out: IC50 (uM) HLF^a): 0.13 µM | IC50 (HLF cells; Homo sapiens, HLF, read-out: IC50 (uM) HLF^b): 80 µM | pKd (GPX4^U46C; MST): 5.24 | IC50 (HepG2 cells; Homo sapiens, HepG2, read-out: IC50 (uM) HEPG2^a): 11.3 µM | IC50 (HepG2 cells; Homo sapiens, HepG2, read-out: IC50 (uM) HEPG2^b): 222 µM | IC50 (HT-1080 cells; Homo sapiens, HT-1080, read-out: IC50 (uM) HT1080^a): 1.9 µM | IC50 (HT-1080 cells; Homo sapiens, HT-1080, read-out: IC50 (uM) HT1080^b): 77.4 µM

pKd (GPX4^U46C; MST): 6.31 | times more potent than RSL3 (binding affinity) (GPX4^U46C; MST, relative to RSL3): 15 times | IC50 (HT-1080 cells; HT1080 + Fer-1, read-out: IC50 (uM) HT1080 + Fer-1): 30.3 µM | pIC50 (HT-1080 cells; read-out: IC50 HT1080): 6.36
SMILES: COc1ccc(-c2ccc3c(C(=O)NC(C)(C)COC(=O)CCl)nn(C)c3c2)cc1Cl [QW-446]
ferroptosis selectivity (HT-1080 cells; HT-1080): 69 | Selectivity (HT-1080 cells; ferroptosis selectivity, HT1080 + Fer-1 vs HT1080): 69

SMILES: CC(C)(COC(=O)CCl)NC(=O)c1nn(Cc2cc(Cl)cc(Cl)c2)c2cc(-c3ccc(N4CCOCC4)c(Cl)c3)ccc12 [QW-852]
Selectivity (HT-1080 cells): >1000 | pIC50 (HT-1080 cells; read-out: IC50 against HT1080 cell lines): 7.40 | IC50 (HT-1080 cells; [9]): > 40 µM

SMILES: COC(=O)c1ccc([C@@H]2c3[nH]c4ccccc4c3C[C@@H](C(=O)OC)N2C(=O)CCl)cc1 [RSL3, reference compound]
IC50 (SK-HEP-1 cells; [1]): 0.05 µM | IC50 (SK-HEP-1 cells; compounds alone, Table 7, read-out: IC50 (uM) SKHEP1^a): 0.05 µM | IC50 (SK-HEP-1 cells; [2]): > 40 µM | IC50 (SK-HEP-1 cells; with fer-1, Table 7, read-out: IC50 (uM) SKHEP1^b): > 40 µM | IC50 (HLF cells; [3]): 0.25 µM | IC50 (HLF cells; compounds alone, Table 7, read-out: IC50 (uM) HLF^a): 0.25 µM | IC50 (HLF cells; [4]): > 40 µM | IC50 (HLF cells; with fer-1, Table 7, read-out: IC50 (uM) HLF^b): > 40 µM | IC50 (HepG2 cells; [5]): 5.4 µM | IC50 (HepG2 cells; compounds alone, Table 7, read-out: IC50 (uM) HEPG2^a): 5.4 µM | IC50 (HepG2 cells; compounds alone, read-out: IC50 (μM) HEPG2^a): 5.4 µM | IC50 (HepG2 cells; compounds and fer-1 1.0 μM, read-out: IC50 (μM) HEPG2^b): 32.2 µM | IC50 (HepG2 cells; [6]): 32.2 µM | IC50 (HepG2 cells; with fer-1, Table 7, read-out: IC50 (uM) HEPG2^b): 32.2 µM | Selectivity (HT-1080 cells): 103.6 | IC50 (HT-1080 cells; [7]): 0.044 µM | IC50 (HT-1080 cells; compounds alone, Table 7, read-out: IC50 (uM) HT1080^a): 0.044 µM | IC50 (HT-1080 cells; compounds alone, read-out: IC50 (μM) HT1080^a): 0.044 µM | IC50 (HT-1080 cells; compounds and fer-1 1.0 μM, read-out: IC50 (μM) HT1080^b): 4.6 µM | IC50 (HT-1080 cells; [9]): 4.6 µM | IC50 (HT-1080 cells; [8]): 4.6 µM | IC50 (HT-1080 cells; with fer-1, Table 7, read-out: IC50 (uM) HT1080^b): 4.6 µM | pIC50 (HT-1080 cells; without Fer-1, Table 10, read-out: IC50 HT1080): 7.35
